Data as given in US9302014B2, “Cell-penetrating peptides having a central hydrophobic domain” (Medical Research Council, priority 2011, dated 2016).
Non-standard residues stand in square brackets, D forms with d. No end group written: not given here. Ahx = NCCCCCC(=O)O; βAla = NCCC(=O)O

Test system: dystrophin
Assay: In vivo exon skipping and dystrophin production in mdx mice (combined RNA and protein read-outs)
Conditions: lead PPMO comparison; TA, quadriceps, diaphragm and heart; 8 week old mdx mice, 12.5 mg/kg IV, 2 weeks
Description: Given the potency of Pip5e-PMO in heart tissue, the aim of altering the sequence of the hydrophobic core (whilst maintaining the 5-aa length) was to identify peptides that might be more efficient at lower doses. These modifications included inversion of the hydrophobic region (Pip6a), substitution of tyrosine by isoleucine (Pip6b), substitution of glutamine in the Pip6a sequence by displacement of the arginine immediately flanking the core in the first arginine-rich flanking region (Pip6e), and a scrambled hydrophobic core sequence (Pip6f). All Pip6 peptide-PMO conjugates were administered to mdx mice as single 12.5 mg/kg intravenous injections via the tail vein and tissues were harvested 2 weeks later and assessed for activity at both RNA and protein levels. […]
Immunohistochemical staining (data not shown) was used to visualise the production of dystrophin protein (and its correct re-location at the sarcolemma) and RT-PCR was used to detect exon-skipped products in treated mdx muscle groups. qPCR allows for the quantification of the spliced product and Western blots were used to quantify the amount of dystrophin protein produced in muscles from treated mdx mice as compared with C57BL10 and untreated mdx controls. […]

Pip9d2: Pip9 series peptide (SEQ ID Nos 320-328) conjugated to PMODMD (R[Ahx]RR[βAla]RFQILY[βAla]R[Ahx]R[βAla]; also: conjugated to PMO (PMODMD))
levels of exon-skipped dystrophin RNA and protein: negligible dystrophin production
